The source of these data is paper PMC11062922 (Nature Chemical Biology, 2023).

Read-outs that look alike come from different tables or passages of the source.

One test has as its target T1, EPHB3 (Homo sapiens, UniProt P54753).
T1 construct: endogenous in cells
T1 sequence (P54753 34-998): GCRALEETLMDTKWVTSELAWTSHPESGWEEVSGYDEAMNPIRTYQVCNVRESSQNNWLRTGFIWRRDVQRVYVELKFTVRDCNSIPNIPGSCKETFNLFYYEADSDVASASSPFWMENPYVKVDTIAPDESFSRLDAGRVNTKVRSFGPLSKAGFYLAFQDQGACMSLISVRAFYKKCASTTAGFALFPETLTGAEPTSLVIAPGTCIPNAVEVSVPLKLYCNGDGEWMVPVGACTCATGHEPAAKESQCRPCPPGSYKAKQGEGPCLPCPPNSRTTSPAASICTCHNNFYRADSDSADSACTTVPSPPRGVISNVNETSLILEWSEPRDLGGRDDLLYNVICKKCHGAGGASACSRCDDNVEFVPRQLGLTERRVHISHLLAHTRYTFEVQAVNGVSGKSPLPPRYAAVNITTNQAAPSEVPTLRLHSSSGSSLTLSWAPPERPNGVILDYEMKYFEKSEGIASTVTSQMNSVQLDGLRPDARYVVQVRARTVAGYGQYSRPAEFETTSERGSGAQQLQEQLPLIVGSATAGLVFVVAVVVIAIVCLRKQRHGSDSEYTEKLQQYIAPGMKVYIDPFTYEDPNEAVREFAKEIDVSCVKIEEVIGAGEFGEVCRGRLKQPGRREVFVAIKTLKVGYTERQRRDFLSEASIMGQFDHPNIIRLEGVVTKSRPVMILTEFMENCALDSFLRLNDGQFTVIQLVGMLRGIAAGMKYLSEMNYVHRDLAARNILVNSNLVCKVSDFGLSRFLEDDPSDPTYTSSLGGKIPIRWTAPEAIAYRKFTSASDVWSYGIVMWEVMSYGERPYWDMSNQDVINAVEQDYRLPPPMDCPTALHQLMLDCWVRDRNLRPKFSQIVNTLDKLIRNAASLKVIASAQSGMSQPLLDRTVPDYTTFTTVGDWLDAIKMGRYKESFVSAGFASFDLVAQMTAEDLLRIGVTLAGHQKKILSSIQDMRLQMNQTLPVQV
Kind of test: Kinobeads two-dose competition binding: EPHB3. The note with it: read-out: Lestaurtinib Drugmatrix value, Gene Name EPHB3.

A further test addresses T2, GSK3A (Homo sapiens, UniProt P49840).
T2 construct: endogenous in cells
Kind of test: Kinobeads two-dose competition binding: GSK3A. The note with it: read-out: Lestaurtinib Drugmatrix value, Gene Name GSK3A.

For another test, the target named is T3, ULK3 (Homo sapiens, UniProt Q6PHR2).
T3 construct: endogenous in cells
Kind of test: Kinobeads two-dose competition binding: ULK3.

The next test addresses T4, ERN1 (Homo sapiens, UniProt O75460).
T4 construct: endogenous in cells
Put plainly: Kinobeads two-dose competition binding: ERN1. The settings on record: read-out: Lestaurtinib Drugmatrix value, Gene Name ERN1.

For the next test, the target named is T5, EPHA5 (Homo sapiens, UniProt P54756).
T5 construct: endogenous in cells
Put plainly: Kinobeads two-dose competition binding: EPHA5. The note with it: read-out: Lestaurtinib Drugmatrix value, Gene Name EPHA5.

In a further test the target is T6, EPHB2 (Homo sapiens, UniProt P29323).
T6 construct: endogenous in cells
T6 sequence (P29323 19-1055): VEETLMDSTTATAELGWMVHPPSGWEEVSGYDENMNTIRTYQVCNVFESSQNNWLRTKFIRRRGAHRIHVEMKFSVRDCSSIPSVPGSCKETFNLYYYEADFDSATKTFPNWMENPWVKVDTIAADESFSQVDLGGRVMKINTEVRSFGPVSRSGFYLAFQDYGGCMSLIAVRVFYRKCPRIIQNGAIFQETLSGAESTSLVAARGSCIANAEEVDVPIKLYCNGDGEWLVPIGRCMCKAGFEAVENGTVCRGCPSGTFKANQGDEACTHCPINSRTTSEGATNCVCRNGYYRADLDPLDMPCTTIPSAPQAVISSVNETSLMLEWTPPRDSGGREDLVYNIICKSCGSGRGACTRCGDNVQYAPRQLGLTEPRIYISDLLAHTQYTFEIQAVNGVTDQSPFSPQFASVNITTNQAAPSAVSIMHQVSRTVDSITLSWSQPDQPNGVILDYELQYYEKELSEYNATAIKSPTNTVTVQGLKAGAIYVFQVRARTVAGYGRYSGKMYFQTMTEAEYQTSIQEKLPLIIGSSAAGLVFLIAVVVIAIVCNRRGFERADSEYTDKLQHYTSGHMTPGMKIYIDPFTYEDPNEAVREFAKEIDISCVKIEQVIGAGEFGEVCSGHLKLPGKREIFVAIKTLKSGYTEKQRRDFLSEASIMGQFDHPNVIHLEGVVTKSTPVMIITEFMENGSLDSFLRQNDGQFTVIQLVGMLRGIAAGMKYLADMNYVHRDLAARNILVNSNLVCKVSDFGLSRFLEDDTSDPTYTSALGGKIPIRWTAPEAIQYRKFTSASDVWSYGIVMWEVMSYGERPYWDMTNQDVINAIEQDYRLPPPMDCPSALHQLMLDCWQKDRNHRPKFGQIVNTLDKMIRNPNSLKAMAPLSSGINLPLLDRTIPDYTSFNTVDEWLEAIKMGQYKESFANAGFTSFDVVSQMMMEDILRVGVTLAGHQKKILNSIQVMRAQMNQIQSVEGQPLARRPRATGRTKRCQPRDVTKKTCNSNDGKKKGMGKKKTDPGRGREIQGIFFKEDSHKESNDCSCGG
Put plainly: Kinobeads two-dose competition binding: EPHB2. The note with it: read-out: Lestaurtinib Drugmatrix value, Gene Name EPHB2.

For the next test, the target named is T7, PKN2 (Homo sapiens, UniProt Q16513).
T7 construct: a mixture of lysates from five cancer cell lines; endogenous in cells
Put plainly: Kinobeads full dose-response competition binding: PKN2. The settings on record: Gene Name PKN2.

The next test concerns the target T8, MAP3K5 (Homo sapiens, UniProt Q99683).
T8 construct: endogenous in cells
Put plainly: Kinobeads two-dose competition binding: MAP3K5. The settings on record: Drugmatrix - all 2, read-out: apparent Kd MAP3K5.

T7 sequence (Q16513 whole entry): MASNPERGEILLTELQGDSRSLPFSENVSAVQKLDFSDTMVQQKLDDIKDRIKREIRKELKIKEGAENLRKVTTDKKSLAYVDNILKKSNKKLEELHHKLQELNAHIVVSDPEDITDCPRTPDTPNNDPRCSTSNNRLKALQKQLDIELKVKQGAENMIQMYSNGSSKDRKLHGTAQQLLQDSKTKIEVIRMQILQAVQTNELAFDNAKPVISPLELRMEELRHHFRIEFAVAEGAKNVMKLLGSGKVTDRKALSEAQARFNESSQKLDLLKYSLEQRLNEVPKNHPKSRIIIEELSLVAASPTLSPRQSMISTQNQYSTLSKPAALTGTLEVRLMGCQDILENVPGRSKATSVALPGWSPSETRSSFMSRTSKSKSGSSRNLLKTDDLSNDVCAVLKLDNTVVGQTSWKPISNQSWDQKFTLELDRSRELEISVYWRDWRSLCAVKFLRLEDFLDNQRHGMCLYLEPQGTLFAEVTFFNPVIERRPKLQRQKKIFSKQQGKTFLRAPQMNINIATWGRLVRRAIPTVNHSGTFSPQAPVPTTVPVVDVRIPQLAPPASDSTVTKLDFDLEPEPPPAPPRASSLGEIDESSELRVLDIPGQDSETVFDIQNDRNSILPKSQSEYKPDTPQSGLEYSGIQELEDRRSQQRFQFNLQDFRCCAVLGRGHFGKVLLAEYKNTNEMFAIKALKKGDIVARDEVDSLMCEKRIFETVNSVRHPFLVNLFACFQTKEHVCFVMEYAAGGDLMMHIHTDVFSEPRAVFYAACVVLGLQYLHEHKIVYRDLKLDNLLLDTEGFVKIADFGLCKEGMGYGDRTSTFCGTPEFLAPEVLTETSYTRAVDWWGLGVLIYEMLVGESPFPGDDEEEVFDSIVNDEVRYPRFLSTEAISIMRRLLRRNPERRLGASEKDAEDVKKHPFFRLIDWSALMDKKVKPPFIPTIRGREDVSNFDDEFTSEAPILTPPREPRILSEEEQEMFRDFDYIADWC
T3 sequence (Q6PHR2 whole entry): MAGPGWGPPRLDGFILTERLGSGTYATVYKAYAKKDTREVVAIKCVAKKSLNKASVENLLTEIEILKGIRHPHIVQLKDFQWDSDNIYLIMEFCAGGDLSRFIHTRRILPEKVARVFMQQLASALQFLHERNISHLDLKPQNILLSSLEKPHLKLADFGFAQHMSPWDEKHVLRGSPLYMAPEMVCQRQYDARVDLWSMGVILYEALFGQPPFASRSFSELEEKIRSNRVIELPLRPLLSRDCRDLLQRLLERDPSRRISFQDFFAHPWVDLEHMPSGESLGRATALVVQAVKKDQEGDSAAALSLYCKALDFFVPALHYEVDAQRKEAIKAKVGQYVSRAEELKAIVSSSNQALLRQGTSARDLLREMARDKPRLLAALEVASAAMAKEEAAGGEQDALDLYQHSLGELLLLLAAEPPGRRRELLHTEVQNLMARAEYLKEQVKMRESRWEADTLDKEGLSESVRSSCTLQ
T8 sequence (Q99683 whole entry): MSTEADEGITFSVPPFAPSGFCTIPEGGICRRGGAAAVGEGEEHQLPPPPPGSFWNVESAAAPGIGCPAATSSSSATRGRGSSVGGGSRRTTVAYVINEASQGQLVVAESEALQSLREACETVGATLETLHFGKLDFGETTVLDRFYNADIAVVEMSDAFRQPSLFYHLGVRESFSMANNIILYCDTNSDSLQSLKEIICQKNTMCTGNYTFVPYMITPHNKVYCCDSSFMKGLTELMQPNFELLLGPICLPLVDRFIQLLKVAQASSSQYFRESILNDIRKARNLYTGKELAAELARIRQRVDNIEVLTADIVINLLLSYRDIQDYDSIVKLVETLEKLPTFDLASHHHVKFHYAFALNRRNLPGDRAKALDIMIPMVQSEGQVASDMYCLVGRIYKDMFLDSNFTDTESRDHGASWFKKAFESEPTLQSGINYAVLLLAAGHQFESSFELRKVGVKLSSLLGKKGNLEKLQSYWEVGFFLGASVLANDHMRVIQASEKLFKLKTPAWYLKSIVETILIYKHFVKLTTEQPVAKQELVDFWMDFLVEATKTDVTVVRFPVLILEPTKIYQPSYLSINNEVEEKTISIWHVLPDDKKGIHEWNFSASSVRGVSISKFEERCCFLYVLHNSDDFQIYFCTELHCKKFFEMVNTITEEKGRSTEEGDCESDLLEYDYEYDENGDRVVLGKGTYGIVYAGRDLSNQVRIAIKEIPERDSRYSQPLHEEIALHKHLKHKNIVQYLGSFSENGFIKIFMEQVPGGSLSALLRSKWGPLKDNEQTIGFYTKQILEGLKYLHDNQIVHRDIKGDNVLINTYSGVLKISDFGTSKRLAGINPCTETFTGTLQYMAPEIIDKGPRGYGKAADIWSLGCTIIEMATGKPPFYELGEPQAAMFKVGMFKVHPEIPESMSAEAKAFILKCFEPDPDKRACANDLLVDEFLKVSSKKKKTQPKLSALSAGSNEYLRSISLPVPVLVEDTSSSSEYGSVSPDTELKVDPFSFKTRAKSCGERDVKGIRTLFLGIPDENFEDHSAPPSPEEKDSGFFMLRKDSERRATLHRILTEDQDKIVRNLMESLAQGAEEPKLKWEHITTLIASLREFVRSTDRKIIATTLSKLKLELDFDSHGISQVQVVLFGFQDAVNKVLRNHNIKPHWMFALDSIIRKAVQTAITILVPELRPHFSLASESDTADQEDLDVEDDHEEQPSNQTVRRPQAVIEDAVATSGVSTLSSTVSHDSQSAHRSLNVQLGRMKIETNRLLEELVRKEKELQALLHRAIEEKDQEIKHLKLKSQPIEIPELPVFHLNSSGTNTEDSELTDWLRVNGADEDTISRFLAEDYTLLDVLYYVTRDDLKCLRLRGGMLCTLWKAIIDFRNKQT
T5 sequence (P54756 25-1037): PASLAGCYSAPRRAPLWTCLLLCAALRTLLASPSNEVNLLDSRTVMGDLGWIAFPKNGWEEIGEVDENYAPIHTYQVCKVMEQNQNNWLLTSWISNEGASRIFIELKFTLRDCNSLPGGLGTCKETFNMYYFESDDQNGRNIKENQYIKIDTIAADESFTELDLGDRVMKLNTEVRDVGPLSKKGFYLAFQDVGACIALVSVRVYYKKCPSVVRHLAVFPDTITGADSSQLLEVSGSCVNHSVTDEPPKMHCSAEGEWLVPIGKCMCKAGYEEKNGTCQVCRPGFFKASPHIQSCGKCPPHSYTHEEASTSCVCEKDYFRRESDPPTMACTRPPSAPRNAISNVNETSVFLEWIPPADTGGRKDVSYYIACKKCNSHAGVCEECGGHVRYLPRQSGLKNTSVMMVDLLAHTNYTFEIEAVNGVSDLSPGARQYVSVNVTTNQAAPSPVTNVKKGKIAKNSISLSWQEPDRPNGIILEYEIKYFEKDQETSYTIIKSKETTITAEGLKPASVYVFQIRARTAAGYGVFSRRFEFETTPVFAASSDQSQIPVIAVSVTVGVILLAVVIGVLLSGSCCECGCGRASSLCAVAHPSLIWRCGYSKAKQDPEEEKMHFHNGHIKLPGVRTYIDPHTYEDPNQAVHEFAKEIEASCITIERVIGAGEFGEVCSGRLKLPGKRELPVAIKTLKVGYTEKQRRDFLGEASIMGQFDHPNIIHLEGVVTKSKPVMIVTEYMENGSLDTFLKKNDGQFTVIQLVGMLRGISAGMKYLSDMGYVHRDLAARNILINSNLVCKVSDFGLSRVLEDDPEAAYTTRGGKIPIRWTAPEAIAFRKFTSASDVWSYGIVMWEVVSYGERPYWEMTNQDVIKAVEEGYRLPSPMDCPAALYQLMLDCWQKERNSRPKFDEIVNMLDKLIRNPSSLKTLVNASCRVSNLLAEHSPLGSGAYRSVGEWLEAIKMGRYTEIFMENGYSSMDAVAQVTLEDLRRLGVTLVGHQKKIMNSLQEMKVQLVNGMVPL
T2 sequence (P49840 whole entry): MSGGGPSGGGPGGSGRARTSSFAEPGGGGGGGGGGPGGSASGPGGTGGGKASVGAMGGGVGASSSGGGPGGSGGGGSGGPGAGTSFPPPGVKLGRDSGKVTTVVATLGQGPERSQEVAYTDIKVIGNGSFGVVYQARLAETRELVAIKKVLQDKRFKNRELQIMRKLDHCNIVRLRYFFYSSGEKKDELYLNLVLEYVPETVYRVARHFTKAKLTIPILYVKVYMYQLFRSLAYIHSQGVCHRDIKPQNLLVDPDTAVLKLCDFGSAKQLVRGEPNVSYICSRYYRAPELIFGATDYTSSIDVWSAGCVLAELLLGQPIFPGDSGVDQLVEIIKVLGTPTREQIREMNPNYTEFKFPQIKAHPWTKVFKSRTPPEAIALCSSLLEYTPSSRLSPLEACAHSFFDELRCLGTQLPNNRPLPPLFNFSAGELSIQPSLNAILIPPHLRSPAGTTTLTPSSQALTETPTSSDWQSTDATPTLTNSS

For `C[C@]12O[C@H](C[C@]1(O)CO)n1c3ccccc3c3c4c(c5c6ccccc6n2c5c31)CNC4=O` [Lestaurtinib], the potency estimated from few doses on EPHB3 is 780 nM; at GSK3A, 175 nM; at ULK3 (read-out: Lestaurtinib Drugmatrix value, Gene Name ULK3, repeated control pulldowns; each column = experiment id and replicate (Lestaurtinib_02339_R1 ... Lestaurtinib_03260_R3)) it was 113 nM; at ULK3 (read-out: Lestaurtinib Drugmatrix value, Gene Name ULK3; repeated control pulldowns; each column = experiment id and replicate (Lestaurtinib_02339_R1 ... Lestaurtinib_03260_R3)), 218 nM; at ERN1, 176 nM; at EPHA5 it was 255 nM. In addition, on EPHB2, the potency estimated from few doses was 257 nM.
As for `CCn1c(-c2nonc2N)nc2c(C#CC(C)(C)O)nc(OCCN)cc21` [GSK902056A], on PKN2 (0.3nM compound, DMSO = 1), the “Relative Intensity 0.3nM” value came to 0.9769. On PKN2 (1nM compound, DMSO = 1), the “Relative Intensity 1nM” value is on record as 1.016. The “Relative Intensity 3nM” value at PKN2 (3nM compound, DMSO = 1) is given as 1.0433. Further, the “Relative Intensity 10nM” value on PKN2 (10nM compound, DMSO = 1) is recorded as 1.014. Besides, the “Relative Intensity 30nM” value at PKN2 (30nM compound, DMSO = 1) stood at 0.9503. Further, the “Relative Intensity 100nM” value on PKN2 (100nM compound, DMSO = 1) was determined as 0.8449. Further, on PKN2 (300nM compound, DMSO = 1), the “Relative Intensity 300nM” value worked out at 0.6334. For the same compound, the “Relative Intensity 1000nM” value on PKN2 (1000nM compound, DMSO = 1) was 0.3485. For the same compound, the Kd on PKN2 (EC50 with Correction, doses in nM, read-out: apparent Kd) was 401 nM. At PKN2 (eight-dose curve fit, doses in nM), this compound showed an EC50 of 401 nM.
Take `CC(C)N1CC(=O)N(C)c2cnc(Nc3cccc(S(=O)(=O)CCN4CCOCC4)c3)nc21` [BI00009348]: on MAP3K5, the potency estimated from few doses is above 1000 nM.

As a reminder, the EC50 is the concentration needed to bring the measured effect to its halfway point. Low values mean greater potency, high ones weaker potency.
